Results taken from patent publication US20080085889A1, “Amidomethyl-Substituted 1-(Carboxyalkyl) Cyclopentyl-Carbonylamino-Benzazepine-N-Acetic Acid Compounds, Process and Intermediate Products for Their Preparation and Pharmaceutical Compositions Containing Them” (SOLVAY PHARMACEUTICALS GmbH, priority 2003, published 2008).

System: pyramidal neurons of the hippocampal CA3 subfield
Experiment: Traumatic brain injury: delayed apoptotic neuronal death, neuronal densities in CA3 hippocampus
Assay type: in vivo, Adult Wistar rats
Conditions: for Neuronal densities CA3 hippocampus: traumatized right side, ± SEM
Experimental: 1. Traumatic Brain Injury: Delayed Apoptotic Neuronal Death
Contusing device. The contusing device consisted of a stainless steel tube, 40 cm in length, perforated at 1 cm intervals to prevent air compression in the tube. Adult Wistar rats, 230-270 g, were anesthetized with chloral hydrate, 400 mg/kg i.p., a craniotomy over the right hemisphere was made, the device guiding a falling weight onto the footplate resting upon the surface of the dura was placed perpendicular to the surface of the skull, and a force of 380 g×cm produced by a 20 g weight was selected to produce brain contusion. A maximum of 2.5 mm depression of the brain surface was allowed to avoid mechanical puncture of the dura. The center of the footplate was stereotaxically positioned 1.5 mm posterior and 2.5 mm lateral to the bregma. The rats underwent perfusion fixation 3 days after brain injury with a solution containing 4% paraformaldehyde in phosphate buffer.
Intracerebroventricular injections: Compounds were administered intracerebroventricularly (=i.c.v.) by means of a Hamilton syringe in a volume of 5-15 μl. Injections were performed over 5 min, 15 min-8 hrs after trauma using the following stereotaxic coordinates: AP=−0.5 mm, L=−2 mm and V=−5.5 in relation to bregma (Swanson, L. W. (1992) Brain Maps: Structure of the Rat Brain, Elsevier, Amsterdam).
Morphometric analysis in hippocampus. The damage in the hippocampal CA3 subfield was determined stereologically at 5 different rostrocaudal levels extending from 10.21 to 11.21 mm (Swanson, L. W. (1992) Brain Maps Structure of the Rat Brain, Elsevier, Amsterdam) and throughout its mediolateral axis three days after traumatic injury. To quantitatively assess neuronal loss in the hippocampus, stereological disector technique (Cruz-Orive, L. M. & Weibel, E. R. (1990) Am. J. Physiol. 258, L148-L156) was used to estimate numerical density (Nv) of pyramidal neurons. An unbiased counting frame (0.05 mm×0.05 mm; disector height 0.01 mm) and a high-aperture objective (×40) were used for sampling. Normal neurons were identified by the presence of the typical nuclei with clear nucleoplasm and distinct nucleolus surrounded by cytoplasm containing Nissl substance. The border between CA2 and CA3 subfields was considered as the point where the looser arrangement of large pyramidal cells goes into densely packed pyramidal cells of the subfield CA3. An arbitrary line connecting the lateral ends of the dentate granule cell layers was considered a junction between subfields CA3 and CA4.
Dose response of the neuroprotective effect of the test substance of Example 3 when administered i.c.v. 15 min after trauma to adult Wistar rats was measured. Neuronal densities were determined in the CA3 hippocampal subfield as described in the methods. Densities of CA3 neurons ±Standard Error of […] (=SEM) in 6 stereotactic levels in the left non-traumatized side of vehicle treated rats and the traumatized right side of vehicle treated rats and in rats treated with the test substance of Example 3 were measured and the results listed in table 6 below.
The time window of the neuroprotective effect of test substance of Example 3 when administered i.c.v. 2, 4 or 8 hrs after trauma to adult Wistar rats was measured. Neuronal densities were determined in the CA3 hippocampal subfield as described in the methods. Densities of CA3 neurons ±SEM in 6 stereotactic levels in the traumatized right side of rats treated with either vehicle or the test compound of Example 3 were measured and the results listed in table 7 below.

Question: Which “Neuronal densities CA3 hippocampus” value (3 μg i.c.v. 15 min after trauma, stereotactic level 10.21) does the source give for `CC(C)NC(=O)CC(CC1(C(=O)N[C@H]2CCc3ccccc3N(CC(=O)O)C2=O)CCCC1)C(=O)O` (stereo in doubt) [Example 3, (2″rel1″)-2-{[(3S)-1-({[1-(carboxymethyl)-2-oxo-2,3,4,5-tetrahydro-1H-1-benzazepin-3-yl]amino}-carbonyl)cyclopentyl]methyl}-4-(isopropylamino)-4-oxobutyric acid] here?
Answer: 98.40 ± 4.39 cells × 10^3/mm^3

Question: What about the “Neuronal densities CA3 hippocampus” value (3 μg i.c.v. 15 min after trauma, stereotactic level 10.41) of the same compound?
Answer: 89.00 ± 5.05 cells × 10^3/mm^3

Question: What about the “Neuronal densities CA3 hippocampus” value (3 μg i.c.v. 15 min after trauma, stereotactic level 10.61) of the same compound?
Answer: 72.80 ± 6.01 cells × 10^3/mm^3

Question: And the “Neuronal densities CA3 hippocampus” value (3 μg i.c.v. 15 min after trauma, stereotactic level 10.81)?
Answer: 84.20 ± 6.47 cells × 10^3/mm^3

Question: And the “Neuronal densities CA3 hippocampus” value (3 μg i.c.v. 15 min after trauma, stereotactic level 11.01)?
Answer: 86.00 ± 7.44 cells × 10^3/mm^3

Question: And the “Neuronal densities CA3 hippocampus” value (3 μg i.c.v. 15 min after trauma, stereotactic level 11.21)?
Answer: 95.40 ± 6.96 cells × 10^3/mm^3

Question: And the “effect on hippocampal neuronal loss” value (10 μg i.c.v. 2, 4 or 8 hrs after trauma, P<0.001 at 2 and 4 hrs, P<0.01 for 8 hrs)?
Answer: partially prevented hippocampal neuronal loss

Question: And the “Neuronal densities CA3 hippocampus” value (10 μg i.c.v. 15 min after trauma, stereotactic level 10.21)?
Answer: 108.60 ± 4.30 cells × 10^3/mm^3

Question: What about the “Neuronal densities CA3 hippocampus” value (10 μg i.c.v. 15 min after trauma, stereotactic level 10.41) of the same compound?
Answer: 108.60 ± 5.34 cells × 10^3/mm^3

Question: And the “Neuronal densities CA3 hippocampus” value (10 μg i.c.v. 15 min after trauma, stereotactic level 10.61)?
Answer: 111.40 ± 7.09 cells × 10^3/mm^3

Question: And the “Neuronal densities CA3 hippocampus” value (10 μg i.c.v. 15 min after trauma, stereotactic level 10.81)?
Answer: 112.00 ± 6.42 cells × 10^3/mm^3

Question: What about the “Neuronal densities CA3 hippocampus” value (10 μg i.c.v. 15 min after trauma, stereotactic level 11.01) of the same compound?
Answer: 111.40 ± 7.11 cells × 10^3/mm^3

Question: What about the “Neuronal densities CA3 hippocampus” value (10 μg i.c.v. 15 min after trauma, stereotactic level 11.21) of the same compound?
Answer: 119.20 ± 3.70 cells × 10^3/mm^3

Question: And the “Neuronal densities CA3 hippocampus” value (10 μg i.c.v. 2 hrs after trauma, stereotactic level 10.21)?
Answer: 72.30 ± 4.80 cells × 10^3/mm^3

Question: And the “Neuronal densities CA3 hippocampus” value (10 μg i.c.v. 2 hrs after trauma, stereotactic level 10.41)?
Answer: 68.10 ± 6.30 cells × 10^3/mm^3

Question: And the “Neuronal densities CA3 hippocampus” value (10 μg i.c.v. 2 hrs after trauma, stereotactic level 10.61)?
Answer: 60.80 ± 5.60 cells × 10^3/mm^3

Question: And the “Neuronal densities CA3 hippocampus” value (10 μg i.c.v. 2 hrs after trauma, stereotactic level 10.81)?
Answer: 60.20 ± 9.40 cells × 10^3/mm^3

Question: What about the “Neuronal densities CA3 hippocampus” value (10 μg i.c.v. 2 hrs after trauma, stereotactic level 11.01) of the same compound?
Answer: 63.00 ± 11.70 cells × 10^3/mm^3

Question: And the “Neuronal densities CA3 hippocampus” value (10 μg i.c.v. 2 hrs after trauma, stereotactic level 11.21)?
Answer: 67.70 ± 14.00 cells × 10^3/mm^3

Question: And the “Neuronal densities CA3 hippocampus” value (10 μg i.c.v. 4 hrs after trauma, stereotactic level 10.21)?
Answer: 72.20 ± 5.70 cells × 10^3/mm^3

Question: And the “Neuronal densities CA3 hippocampus” value (10 μg i.c.v. 4 hrs after trauma, stereotactic level 10.41)?
Answer: 65.90 ± 8.80 cells × 10^3/mm^3

Question: What about the “Neuronal densities CA3 hippocampus” value (10 μg i.c.v. 4 hrs after trauma, stereotactic level 10.61) of the same compound?
Answer: 63.00 ± 6.30 cells × 10^3/mm^3

Question: What about the “Neuronal densities CA3 hippocampus” value (10 μg i.c.v. 4 hrs after trauma, stereotactic level 10.81) of the same compound?
Answer: 60.50 ± 10.50 cells × 10^3/mm^3

Question: And the “Neuronal densities CA3 hippocampus” value (10 μg i.c.v. 4 hrs after trauma, stereotactic level 11.01)?
Answer: 62.20 ± 13.50 cells × 10^3/mm^3

Question: And the “Neuronal densities CA3 hippocampus” value (10 μg i.c.v. 4 hrs after trauma, stereotactic level 11.21)?
Answer: 66.30 ± 15.90 cells × 10^3/mm^3

Question: What about the “Neuronal densities CA3 hippocampus” value (10 μg i.c.v. 8 hrs after trauma, stereotactic level 10.21) of the same compound?
Answer: 62.00 ± 4.90 cells × 10^3/mm^3

Question: And the “Neuronal densities CA3 hippocampus” value (10 μg i.c.v. 8 hrs after trauma, stereotactic level 10.41)?
Answer: 53.00 ± 6.44 cells × 10^3/mm^3

Question: And the “Neuronal densities CA3 hippocampus” value (10 μg i.c.v. 8 hrs after trauma, stereotactic level 10.61)?
Answer: 53.00 ± 6.00 cells × 10^3/mm^3

Question: What about the “Neuronal densities CA3 hippocampus” value (10 μg i.c.v. 8 hrs after trauma, stereotactic level 10.81) of the same compound?
Answer: 52.50 ± 4.48 cells × 10^3/mm^3

Question: What about the “Neuronal densities CA3 hippocampus” value (10 μg i.c.v. 8 hrs after trauma, stereotactic level 11.01) of the same compound?
Answer: 61.80 ± 4.48 cells × 10^3/mm^3

Question: And the “Neuronal densities CA3 hippocampus” value (10 μg i.c.v. 8 hrs after trauma, stereotactic level 11.21)?
Answer: 65.90 ± 4.90 cells × 10^3/mm^3

Question: And the “Neuronal densities CA3 hippocampus” value (30 μg i.c.v. 15 min after trauma, stereotactic level 10.21)?
Answer: 108.40 ± 3.15 cells × 10^3/mm^3

Question: What about the “Neuronal densities CA3 hippocampus” value (30 μg i.c.v. 15 min after trauma, stereotactic level 10.41) of the same compound?
Answer: 105.20 ± 5.76 cells × 10^3/mm^3

Question: What about the “Neuronal densities CA3 hippocampus” value (30 μg i.c.v. 15 min after trauma, stereotactic level 10.61) of the same compound?
Answer: 94.20 ± 5.10 cells × 10^3/mm^3

Question: And the “Neuronal densities CA3 hippocampus” value (30 μg i.c.v. 15 min after trauma, stereotactic level 10.81)?
Answer: 83.20 ± 7.10 cells × 10^3/mm^3

Question: What about the “Neuronal densities CA3 hippocampus” value (30 μg i.c.v. 15 min after trauma, stereotactic level 11.01) of the same compound?
Answer: 80.20 ± 7.45 cells × 10^3/mm^3

Question: And the “Neuronal densities CA3 hippocampus” value (30 μg i.c.v. 15 min after trauma, stereotactic level 11.21)?
Answer: 90.00 ± 9.24 cells × 10^3/mm^3

Question: And the “effect on hippocampal neuronal loss” value (3, 10 or 30 μg i.c.v. 15 min after trauma, ANOVA P<0.001 for all three doses)?
Answer: partially prevented hippocampal neuronal loss

Question: And the “neuroprotective effect (time window)” value (administered i.c.v. up to 8 hrs after trauma)?
Answer: neuroprotective effect was still evident

Question: And the “neuroprotective effect (dose response)” value (i.c.v. after trauma)?
Answer: dose-dependent neuroprotective effect

Question: What about the “most effective dose against hippocampal neuronal loss” value (of 3, 10 or 30 μg i.c.v. 15 min after trauma) of the same compound?
Answer: 10 µg
